Results reported in PubChem BioAssay (NCI).
Values joined by “and” are separate entries in the source; they are usually repeats but may differ in a detail not shown here. Identical values can stand only once.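 Grown in 96-well plates, cells were treated for 48 hours with each compound at five concentrations. Insufficient inhibition: endpoint recorded as highest concentration tested. Abbreviation: GI50, concentration required for 50% inhibition of growth. The concentration for full growth arrest is given as TGI.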

What was measured:
Test in all cases: NCI tumour cell line growth inhibition, 48 h
[1] = system: BT-549 breast
[2] = system: HOP-92 NSCLC
[3] = system: MALME-3M melanoma
[4] = system: MDA-MB-435
[5] = system: PC-3 prostate
[6] = system: SR leukemia
[7] = system: TK-10 renal
[8] = system: U251 CNS
[9] = system: UACC-62 melanoma
[10] = system: UO-31 renal

Structure (SMILES) | GI50 [1] | TGI [1] | GI50 [2] | TGI [2] | GI50 [3] | TGI [3] | GI50 [4] | TGI [4] | GI50 [5] | TGI [5] [µM] | GI50 [6] | TGI [6] | GI50 [7] | TGI [7] | GI50 [8] | TGI [8] | GI50 [9] | TGI [9] | GI50 [10] | TGI [10]
CSc1nsc(S/C=C\C(=O)c2ccc(C)cc2)n1 | 17.5 µM | 40.3 µM | 17300 nM | 35.1 µM | 19 µM | 38.6 µM | 19.2 µM | 45.6 µM | 29000 nM | > 57.6 | 1250 nM | 5.61 µM | 18600 nM | 33.7 µM | 17.2 µM | 41.5 µM | 18.5 µM | 38.2 µM | 15.1 µM | > 62.8 µM
COC(=O)c1ccc(CN2C(=O)C(Cl)=C(Nc3ccc(OC)c(Cl)c3)C2=O)cc1 | 11.3 µM | 26.7 µM | > 50000 nM | > 50 µM |  |  | 47.3 µM | > 50 µM | 44300 nM | > 50 | 4080 nM | 36.9 µM | > 50000 nM | > 50 µM | 7.26 µM | 19.5 µM | 7.32 µM | 21.1 µM | 31.8 µM | > 50 µM
COC(=O)c1ccc2c(c1)C(=O)c1c-2n(CCCN)c(=O)c2cc(OC)c(OC)cc12 | 17.1 µM | 35.4 µM | 14200 nM | 32.1 µM | 18.7 µM | 45.7 µM | 21.6 µM | 46.2 µM | 8730 nM | > 51.4 | 1980 nM | 4.39 µM | 16900 nM | 37.3 µM | 16 µM | 32.1 µM | 15.4 µM | 30.2 µM | 21 µM | > 56.2 µM
COc1ccc(/C=C\c2cc(OC)c(OC)c(OC)c2)c(NS(=O)(=O)c2ccc(Cl)cc2)c1O | 0.353 µM | 34.5 µM | 2360 nM | 23.6 µM |  |  | 0.0222 µM | 0.0525 µM | 153 nM | > 100 | 30.6 nM | 10.4 µM | 998 nM | 27.7 µM | 0.287 µM | 15.5 µM | 0.0635 µM | 22.6 µM | 0.0739 µM | 26.4 µM
COC(=O)C(=O)C(C(=O)C(N)=O)c1nc2ccc(C(=O)c3ccccc3)cc2[nH]c1=O (stereo not drawn) |  | > 100 µM |  | > 100 µM |  | > 100 µM |  | > 100 µM |  | > 100 |  | > 100 µM |  | > 100 µM |  | > 100 µM |  | > 100 µM |  | 
Cc1cnc(Nc2ccc(OCCN3CCCC3)cc2)nc1Nc1cccc(S(=O)(=O)NC(C)(C)C)c1 | 1.74 µM and 2.68 µM | 4.38 µM and > 9.47 µM | 196 nM and 384 nM | 2.75 µM and 1.88 µM | 0.894 µM and 2.45 µM | 12.3 µM and > 6.36 µM | 0.121 µM and 1.14 µM | 11.9 µM and > 10 µM | 383 nM and 1550 nM | > 51 | 247 nM and 502 nM | 2.34 µM and 5.11 µM | 149 nM and 424 nM | 3.7 µM and 1.85 µM | 0.808 µM and 1.35 µM | 17.2 µM and > 10 µM | 0.491 µM and 1.92 µM | 8.14 µM and > 10 µM | 0.221 µM and 0.656 µM | 1.99 µM and 2.44 µM
Nc1nc(N)nc(CC(=O)O)n1 |  | > 100 µM |  | > 100 µM |  | > 100 µM |  | > 100 µM |  | > 100 |  | > 100 µM |  | > 100 µM |  | > 100 µM |  | > 100 µM |  | > 100 µM
Clc1ccc2c(c1)C(N1CCNCC1)=Nc1ccccc1O2 | 2.42 µM | 10.2 µM | 374 nM | 2.8 µM | 1.75 µM | 3.5 µM | 1.65 µM | 3.11 µM | 1540 nM | 8.74 | 1660 nM | 4.3 µM | 2040 nM | 4.72 µM | 1.51 µM | 2.99 µM | 1.63 µM | 3.1 µM | 1.64 µM | 10.6 µM
Cc1ccc2sc3ccc(N)cc3c(=O)c2c1 |  | > 100 µM |  | 98.3 µM |  |  |  | > 100 µM |  | > 100 |  | > 100 µM |  | > 100 µM |  | > 100 µM |  | > 100 µM |  | > 100 µM
Cc1cc(=O)oc2cc(OC(=O)N(CCCl)CCCl)ccc12 |  | > 100 µM |  | 95.9 µM |  | > 100 µM |  | > 100 µM |  | > 100 |  | > 100 µM |  | > 100 µM |  | > 100 µM |  | > 100 µM |  | > 100 µM
COc1cc(/C=C2\CC3C4CC=C5C[C@@H](O)CC[C@]5(C)C4CC[C@]3(C)C2=O)ccc1OCCCn1ccnc1 (stereo partly drawn) | 16.5 µM | 44.3 µM | 14200 nM | 32.6 µM | 17.3 µM | 36.9 µM | 16.8 µM | 34 µM | > 100000 nM | > 100 | 24100 nM | 41.9 µM | 20400 nM | 35.9 µM | 15 µM | 32.8 µM | 17.3 µM | 35.3 µM | 19.6 µM | 55.2 µM
CC(=O)c1cc(-c2ccccc2N)n(-c2ccc3c(c2)OCO3)c1C | 0.575 µM | 9.9 µM | 149 nM | 24.8 µM | 2.88 µM | > 83.3 µM | 0.163 µM | 0.434 µM | 317 nM | > 100 | 223 nM | 19.1 µM | 623 nM | > 100 µM | 0.277 µM | > 100 µM | 0.227 µM | 23 µM | 0.696 µM | 45.5 µM
CCCCNC(=O)Oc1ccc(/C(=C(/CC)Cc2ccccc2)c2ccc(OCCN3CCCCCC3)cc2)cc1 | 46.5 µM | > 100 µM | 19000 nM | 47.2 µM | 18.2 µM | 35.3 µM | 17.2 µM | 34.3 µM | 33200 nM | > 100 | 14600 nM | 41.1 µM | 26700 nM | 90.5 µM | 18.7 µM | 35 µM | 19.6 µM | 38 µM | 18.9 µM | 46.3 µM
CN(C)CCCc1c2ccccc2nc2ccc(Cl)cc12 |  | 38.2 µM |  | 23.1 µM |  | 30.1 µM |  | 26.6 µM |  | 37 |  | 44.1 µM |  | 27.1 µM |  | 24.8 µM |  | 34.2 µM |  | 
NNS(=O)(=O)c1cc(C(=O)O)cc(C(=O)O)c1 |  | > 100 µM |  | > 100 µM |  | > 100 µM |  | > 100 µM |  | > 100 |  | > 100 µM |  | > 100 µM |  | > 100 µM |  | > 100 µM |  | > 100 µM
